Laboratory results as given in US20240018161A1, “MODULATORS OF CYSTIC FIBROSIS TRANSMEMBRANE CONDUCTANCE REGULATOR” (VERTEX PHARMACEUTICALS INCORPORATED, priority 2020, published 2024).
pEC50: −log10 of the molar value. Where two headings read alike, the source gives them in different places.

Target: CFTR-mediated chloride transport in human intestinal epithelial enteroid cells (Homo sapiens, UniProt P13569)
Test: Membrane potential dye, Enteroid Assay A
Type: cell-based
Settings: for pEC50: read-out: Ent. A EC50
In short: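 Membrane potential dye (20 μM methyl oxonol, with 30 μM CaCCinh-A01 and 30 μM Chicago Sky Blue) loaded 25 min at room temperature into ROCK-inhibitor-seeded human enteroid cells. Chloride-free stimulation buffer triggered transport, followed by 15 min fluorescence. % Activity relative to 3 μM/3 μM/300 nM triple-combination control.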

[1] = enteroid cells incubated with test compound 18-24 hours, acute 10 μM forskolin and 300 nM N-[2,4-bis(1,1-dimethylethyl)-5-hydroxyphenyl]-1,4-dihydro-4-oxoquinoline-3-carboxamide
[2] = percentage of chloride transport of triple combination control (3 μM N-[(6-amino-2-pyridyl)sulfonyl]-6-(3-fluoro-5-isobutoxy-phenyl)-2-[(4S)-2,2,4-trimethylpyrrolidin-1-yl]pyridine-3-carboxamide based)

CFTR-mediated chloride transport in human intestinal epithelial enteroid cells, sequence (P13569 with tags, fused parts or gaps DEL508-508): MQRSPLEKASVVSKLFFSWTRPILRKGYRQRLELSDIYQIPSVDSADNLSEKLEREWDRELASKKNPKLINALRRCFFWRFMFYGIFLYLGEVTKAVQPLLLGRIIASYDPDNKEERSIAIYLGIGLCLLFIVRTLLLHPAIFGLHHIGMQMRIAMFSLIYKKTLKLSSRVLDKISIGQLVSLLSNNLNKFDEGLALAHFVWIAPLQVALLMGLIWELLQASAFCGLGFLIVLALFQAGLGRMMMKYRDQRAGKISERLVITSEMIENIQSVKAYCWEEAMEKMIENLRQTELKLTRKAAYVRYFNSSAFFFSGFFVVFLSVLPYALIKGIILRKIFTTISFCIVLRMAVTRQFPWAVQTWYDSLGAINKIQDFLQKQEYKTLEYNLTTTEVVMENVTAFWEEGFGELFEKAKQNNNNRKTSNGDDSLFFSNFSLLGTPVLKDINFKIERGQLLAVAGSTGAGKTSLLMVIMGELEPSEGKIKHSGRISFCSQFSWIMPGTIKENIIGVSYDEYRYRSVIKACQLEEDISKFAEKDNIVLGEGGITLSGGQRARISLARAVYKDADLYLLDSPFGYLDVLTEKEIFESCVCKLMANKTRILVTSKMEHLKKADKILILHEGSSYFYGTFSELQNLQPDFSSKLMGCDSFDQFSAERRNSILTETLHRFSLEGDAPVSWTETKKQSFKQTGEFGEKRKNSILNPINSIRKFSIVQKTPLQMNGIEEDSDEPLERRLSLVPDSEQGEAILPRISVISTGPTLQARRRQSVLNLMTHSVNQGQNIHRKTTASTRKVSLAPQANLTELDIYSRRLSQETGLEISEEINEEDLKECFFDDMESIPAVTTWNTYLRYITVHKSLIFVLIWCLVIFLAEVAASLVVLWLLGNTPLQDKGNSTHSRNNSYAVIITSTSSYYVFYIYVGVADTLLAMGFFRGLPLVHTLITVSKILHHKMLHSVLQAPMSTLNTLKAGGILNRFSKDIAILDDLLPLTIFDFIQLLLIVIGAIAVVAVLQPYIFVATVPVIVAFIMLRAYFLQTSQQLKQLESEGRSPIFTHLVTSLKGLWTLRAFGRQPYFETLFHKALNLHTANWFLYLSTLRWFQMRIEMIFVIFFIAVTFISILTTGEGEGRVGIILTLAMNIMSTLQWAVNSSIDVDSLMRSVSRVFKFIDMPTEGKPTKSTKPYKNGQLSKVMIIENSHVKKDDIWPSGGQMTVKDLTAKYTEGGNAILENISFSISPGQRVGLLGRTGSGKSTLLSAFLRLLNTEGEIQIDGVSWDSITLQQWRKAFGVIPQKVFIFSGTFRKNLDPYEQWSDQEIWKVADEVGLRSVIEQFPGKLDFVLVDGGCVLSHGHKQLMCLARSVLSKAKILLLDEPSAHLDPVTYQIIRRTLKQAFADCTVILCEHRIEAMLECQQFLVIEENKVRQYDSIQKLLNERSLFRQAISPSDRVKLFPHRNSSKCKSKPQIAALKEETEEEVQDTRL

Structure (SMILES)	pEC50 [1]	Ent. A Max Activity (%) [2]	Ent. A Max Activity (%) (Enteroid Assay A)	pEC50 (Enteroid Assay A)
Cc1cccc(C)c1-c1cc2nc(n1)NS(=O)(=O)c1cccc(c1)C(=O)N1CCN(Cc3ccccc3)C[C@H](C1)O2 [Compound 67, (16R)-18-Benzyl-12-(2,6-dimethylphenyl)-15-oxa-8λ^6-thia-1,9,11,18,22-pentaazatetracyclo[14.4.1.13,7.110,14]tricosa-3(23),4,6,10(22),11,13-hexaene-2,8,8-trione]	> 6.00	+++ (+++ is >60%)	–	–
Cc1cccc(C)c1-c1cc2nc(n1)NS(=O)(=O)c1cccc(c1)C(=O)N1CCN(Cc3ccccc3)C[C@@H](C1)O2 [Compound 68, (16S)-18-benzyl-12-(2,6-dimethylphenyl)-15-oxa-8λ^6-thia-1,9,11,18,22-pentaazatetracyclo[14.4.1.13,7.110,14]tricosa-3(23),4,6,10,12,14(22)-hexaene-2,8,8-trione]	5.52 to 6.00	+ (+ is <300%)	–	–
CCN1CCN2C[C@@H](C1)Oc1cc(-c3c(C)cccc3C)nc(n1)NS(=O)(=O)c1cccc(c1)C2=O [Compound 74, (16R)-12-(2,6-Dimethylphenyl)-18-ethyl-15-oxa-8λ^6-thia-1,9,11,18,22-pentaazatetracyclo[14.4.1.13,7.110,14]tricosa-3(23),4,6,10,12,14(22)-hexaene-2,8,8-trione]	–	–	+++ (+++ is >600%)	5.52 to 6.00
Cc1cccc(C)c1-c1cc2nc(n1)NS(=O)(=O)c1cccc(c1)C(=O)N1CCN(C(C)C)C[C@H](C1)O2 [Compound 75, (16R)-12-(2,6-Dimethylphenyl)-18-(propan-2-yl)-15-oxa-8λ^6-thia-1,9,11,18,22-pentaazatetracyclo[14.4.1.13,7.110,14]tricosa-3,5,7(23),10,12,14(22)-hexaene-2,8,8-trione]	–	–	+++ (+++ is >600%)	> 6.00
Cc1cccc(C)c1-c1cc2nc(n1)NS(=O)(=O)c1cccc(c1)CN1CC(CNCC1=O)O2 (stereo not shown) [Compound 76, 12-(2,6-Dimethylphenyl)-15-oxa-8λ^6-thia-1,9,11,18,22-pentaazatetracyclo[14.4.1.13,7.110,14]tricosa-3(23),4,6,10,12,14(22)-hexaene-8,8,20-trione]	–	–	+ (+ is <30%)	–
Cc1cccc(C)c1-c1cc2nc(n1)NS(=O)(=O)c1cccc(c1)CN1CC(CN(C3CCC(F)(F)CC3)CC1=O)O2 (stereo not shown) [Compound 78, 18-(4,4-Difluorocyclohexyl)-12-(2,6-dimethylphenyl)-15-oxa-8λ^6-thia-1,9,11,18,22-pentaazatetracyclo[14.4.1.13,7.110,14]tricosa-3(23),4,6,10,12,14(22)-hexaene-8,8,20-trione]	–	–	++ (++ is 30-60%)	> 6.00
Cc1cccc(C)c1-c1cc2nc(n1)NS(=O)(=O)c1cccc(c1)C(=O)N1CCN(C(=O)CC34CC5CC(CC(C5)C3)C4)C[C@H](C1)O2 [Compound 79, (16R)-18-[2-(Adamantan-1-yl)acetyl]-12-(2,6-dimethylphenyl)-15-oxa-8λ^6-thia-1,9,11,18,22-pentaazatetracyclo[14.4.1.13,7.110,14]tricosa-3(23),4,6,10,12,14(22)-hexaene-2,8,8-trione]	–	–	+++ (+++ is >600%)	> 6.00
Cc1cccc(C)c1-c1cc2nc(n1)NS(=O)(=O)c1cccc(c1)C(=O)N1CCN(C(=O)C(C)(C)C)C[C@H](C1)O2 [Compound 80, (16R)-12-(2,6-Dimethylphenyl)-18-(2,2-dimethylpropanoyl)-15-oxa-8λ^6-thia-1,9,11,18,22-pentaazatetracyclo[14.4.1.13,7.110,14]tricosa-3(23),4,6,10,12,14(22)-hexaene-2,8,8-trione]	–	–	+++ (+++ is >600%)	4.52 to 5.52
Cc1cccc(C)c1-c1cc2nc(n1)NS(=O)(=O)c1cccc(c1)C(=O)N1CCN(C(=O)CC(C)(C)C)C[C@H](C1)O2 [Compound 81, (16R)-18-(3,3-Dimethylbutanoyl)-12-(2,6-dimethylphenyl)-15-oxa-8λ^6-thia-1,9,11,18,22-pentaazatetracyclo[14.4.1.13,7.110,14]tricosa-3(23),4,6,10,12,14(22)-hexaene-2,8,8-trione]	–	–	+++ (+++ is >600%)	5.52 to 6.00
Cc1cccc(C)c1-c1cc2nc(n1)NS(=O)(=O)c1cccc(c1)C(=O)N1CCN(Cc3ccccc3)CC(C)(C1)O2 (stereo not shown) [Compound 82, 18-Benzyl-12-(2,6-dimethylphenyl)-16-methyl-15-oxa-8λ^6-thia-1,9,11,18,22-pentaazatetracyclo[14.4.1.13,7.110,14]tricosa-3(23),4,6,10,12,14(22)-hexaene-2,8,8-trione]	–	–	+++ (+++ is >600%)	5.52 to 6.00
Cc1cccc(C)c1-c1cc2nc(n1)NS(=O)(=O)c1cccc(c1)C(=O)N1CCN(C3CC4(CCCC4)C3)C[C@@H](O2)[C@H]1CC(C)C [Compound 83, (16R,21R)-12-(2,6-Dimethylphenyl)-21-(2-methylpropyl)-18-{spiro[3.4]octan-2-yl}-15-oxa-8λ^6-thia-1,9,11,18,22-pentaazatetracyclo[14.4.1.13,7.110,14]tricosa-3(23),4,6,10(22),11,13-hexaene-2,8,8-trione]	–	–	+++ (+++ is >600%)	> 6.00
Cc1cccc(C)c1-c1cc2nc(n1)NS(=O)(=O)c1cccc(c1)C(=O)N1CCNCC(O2)C1CC(C)C (stereo not shown) [Compound 93, 12-(2,6-Dimethylphenyl)-21-(2-methylpropyl)-15-oxa-8λ^6-thia-1,9,11,18,22-pentaazatetracyclo[14.4.1.13,7.110,14]tricosa-3(23),4,6,10(22),11,13-hexaene-2,8,8-trione]	–	–	+++ (+++ is >600%)	5.52 to 6.00
Cc1cccc(C)c1-c1cc2nc(n1)NS(=O)(=O)c1cccc(c1)C(=O)N1C[C@@H](CNC[C@@H]1CC(C)C)O2 [Compound 95, (16R,20S)-12-(2,6-Dimethylphenyl)-20-(2-methylpropyl)-15-oxa-8λ^6-thia-1,9,11,18,22-pentaazatetracyclo[14.4.1.13,7.110,14]tricosa-3(23),4,6,10(22),11,13-hexaene-2,8,8-trione]	–	–	++ (++ is 30-60%)	> 6.00
Cc1cccc(C)c1-c1cc2nc(n1)NS(=O)(=O)c1cccc(c1)C(=O)N1C[C@@H](CN(C3CC4(CCCC4)C3)C[C@@H]1CC(C)C)O2 [Compound 97, (16R,20S)-12-(2,6-Dimethylphenyl)-20-(2-methylpropyl)-18-{spiro[3.4]octan-2-yl}-15-oxa-8λ^6-thia-1,9,11,18,22-pentaazatetracyclo[14.4.1.13,7.110,14]tricosa-3(23),4,6,10(22),11,13-hexaene-2,8,8-trione]	–	–	++ (++ is 30-60%)	> 6.00
Cc1cccc(C)c1-c1cc2nc(n1)NS(=O)(=O)c1cccc(c1)C(=O)N1C[C@@H](CN(CC(F)(F)F)C[C@@H]1CC(C)C)O2 [Compound 98, (16R,20S)-12-(2,6-Dimethylphenyl)-20-(2-methylpropyl)-18-(2,2,2-trifluoroethyl)-15-oxa-8λ^6-thia-1,9,11,18,22-pentaazatetracyclo[14.4.1.13,7.110,14]tricosa-3(23),4,6,10(22),11,13-hexaene-2,8,8-trione]	–	–	+ (+ is <30%)	–
